# Key:
# Conditions in all cases: duplicate experiments
# MRSA USA300 = assay type: cell-based, Staphylococcus aureus
# Protocol: (§1) Determining the MIC value is a standard technique well known to the skilled person, in particular the MIC value can be measured using method M07-A9 (CLSI standard, January 2012, Vol. 32, No. 2, “Methods for Dilution Antimicrobial Susceptibility Tests for Bacteria That Grow Aerobically”).
# (§2) Different microorganisms (from glycerol stock) were plated out on blood agar and incubated at 37° C. for 24 hours. A colony was selected and 2×5 mL of TSB was inoculated. The samples and a sterile control were cultured for 16-20 hours at 37° C. Comparative compound B is nisin acting as a control. Comparative compound C is vancomycin, also acting as a control. Comparative compounds A, D and E are also control compounds not part of the present invention.
# (§3) The overnight cultures were diluted to 0.5×10^6 CFU in TSB. 50 μL of the bacterial solution was added to each well and the plates were sealed with an adhesive membrane and incubated at 37° C. for 16 hours. The next day, the plates were visually inspected for bacterial growth.
# VRE 155 = assay type: cell-based
# Protocol: as §1, §2, §3
# B. subtilis = tested on: B. subtilis
# Protocol: as §1
# (§4) Different microorganisms (from glycerol stock) were plated out on blood agar and incubated at 37° C. for 24 hours. A colony was selected and 2×5 mL of TSB was inoculated. The samples and a sterile control were cultured for 16-20 hours at 37° C. Comparative compound B is nisin acting as a control. […] Comparative compounds A, D and E are also control compounds not part of the present invention.
# as §3
# S. aureus = tested on: S. aureus
# Protocol: as §1, §4, §3
# E. coli = tested on: E. coli
# Protocol: as §1, §4, §3
SMILES,MIC values MRSA USA300 (MRSA USA300),MIC values VRE 155 (VRE 155),MIC values B. subtilis (B. subtilis),MIC values S. aureus (S. aureus),MIC values E. coli (E. coli)
C=C1NC(=O)[C@H]([C@@H](C)CC)NC(=O)[C@H](NC(=O)C(=CC)NC(=O)[C@@H](N)[C@@H](C)CC)CSC[C@@H](C(=O)N[C@H]2C(=O)N3CCC[C@H]3C(=O)NCC(=O)N[C@H](C(=O)N[C@@H](CCCCN)C(=O)NCCCCCCCC)CS[C@H]2C)NC(=O)[C@H](CC(C)C)NC1=O [(4)],64 mg/L,16 mg/L,–,–,–
C=C1NC(=O)[C@H]([C@@H](C)CC)NC(=O)[C@H](NC(=O)C(=CC)NC(=O)[C@@H](N)[C@@H](C)CC)CSC[C@@H](C(=O)N[C@H]2C(=O)N3CCC[C@H]3C(=O)NCC(=O)N[C@H](C(=O)N[C@@H](CCCCN)C(=O)NCc3ccc(-c4ccc(Cl)cc4)cc3)CS[C@H]2C)NC(=O)[C@H](CC(C)C)NC1=O [(13)],8 mg/L,4 mg/L,2 to 4 mg/L,–,–
C=C1NC(=O)[C@H]([C@@H](C)CC)NC(=O)[C@H](NC(=O)C(=CC)NC(=O)[C@@H](N)[C@@H](C)CC)CSC[C@@H](C(=O)N[C@H]2C(=O)N3CCC[C@H]3C(=O)NCC(=O)N[C@H](C(=O)N[C@@H](CCCCN)C(=O)N[C@@H](Cc3c[nH]cn3)C(=O)NCCCCCCCCCC)CS[C@H]2C)NC(=O)[C@H](CC(C)C)NC1=O [(17)],8 mg/L,4 mg/L,–,–,–
C=C1NC(=O)[C@H]([C@@H](C)CC)NC(=O)[C@H](NC(=O)C(=CC)NC(=O)[C@@H](N)[C@@H](C)CC)CSC[C@@H](C(=O)N[C@H]2C(=O)N3CCC[C@H]3C(=O)NCC(=O)N[C@H](C(=O)N[C@@H](CCCCNC(=O)CCCCCCCC)C(=O)NC)CS[C@H]2C)NC(=O)[C@H](CC(C)C)NC1=O [(19)],32 mg/L,8 mg/L,–,–,–
C=C1NC(=O)[C@H]([C@@H](C)CC)NC(=O)[C@H](NC(=O)C(=CC)NC(=O)[C@@H](N)[C@@H](C)CC)CSC[C@@H](C(=O)N[C@H]2C(=O)N3CCC[C@H]3C(=O)NCC(=O)N[C@H](C(=O)N[C@@H](CCCCNC(=O)CCN)C(=O)NCCCCCCCCCCCC)CS[C@H]2C)NC(=O)[C@H](CC(C)C)NC1=O [(21)],8 mg/L,4 mg/L,–,–,–
C=C1NC(=O)[C@H]([C@@H](C)CC)NC(=O)[C@H](NC(=O)C(=CC)NC(=O)[C@@H](NC(=O)CCN)[C@@H](C)CC)CSC[C@@H](C(=O)N[C@H]2C(=O)N3CCC[C@H]3C(=O)NCC(=O)N[C@H](C(=O)N[C@@H](CCCCNC(=O)CCN)C(=O)NCCCCCCCCCCCC)CS[C@H]2C)NC(=O)[C@H](CC(C)C)NC1=O [(22)],16 mg/L,8 mg/L,–,–,–
"C=C1NC(=O)[C@H]([C@@H](C)CC)NC(=O)[C@H](NC(=O)C(=CC)NC(=O)[C@@H](N)[C@@H](C)CC)CSC[C@@H](C(=O)N[C@H]2C(=O)N3CCC[C@H]3C(=O)NCC(=O)N[C@H](C(=O)N[C@@H](CCCCN)C(=O)NC)CS[C@H]2C)NC(=O)[C@H](CC(C)C)NC1=O [D, reference compound]",–,–,>128 mg/L,>128 mg/L,>128 mg/L
"C=C1NC(=O)[C@H]([C@@H](C)CC)NC(=O)[C@H](NC(=O)C(=CC)NC(=O)[C@@H](N)[C@@H](C)CC)CSC[C@@H](C(=O)N[C@H]2C(=O)N3CCC[C@H]3C(=O)NCC(=O)N[C@H](C(=O)N[C@@H](CCCCN)C(=O)NCCCN=[N+]=[N-])CS[C@H]2C)NC(=O)[C@H](CC(C)C)NC1=O [E, Nisin [1-12]-azide, reference compound]",–,–,>128 mg/L,>128 mg/L,>128 mg/L

# — patent US20170362283A1, “NISIN-BASED COMPOUNDS AND USE THEREOF IN THE TREATMENT OF BACTERIAL INFECTIONS” (UNIVERSITEIT UTRECHT HOLDING B.V., priority 2015, published 2017)
